This assay deals with T1, Recombinant human renin (Homo sapiens, UniProt P00797).
T1 construct: isolate the active form (residues 67-406); made in house; host or cells: FreeStyle 293-F cells, transient expression of pcDNA3.1(+)/hREN
T1 sequence (P00797 67-406): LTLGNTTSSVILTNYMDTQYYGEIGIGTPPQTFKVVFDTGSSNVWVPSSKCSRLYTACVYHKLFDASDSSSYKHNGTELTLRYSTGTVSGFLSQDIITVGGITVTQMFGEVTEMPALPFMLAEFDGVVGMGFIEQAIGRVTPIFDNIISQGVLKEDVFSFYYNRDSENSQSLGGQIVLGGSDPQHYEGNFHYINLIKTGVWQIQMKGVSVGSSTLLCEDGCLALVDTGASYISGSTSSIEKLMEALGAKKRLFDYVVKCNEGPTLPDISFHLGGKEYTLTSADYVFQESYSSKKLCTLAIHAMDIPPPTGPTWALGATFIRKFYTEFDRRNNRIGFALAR
The assay can be described thus: In vitro enzymatic activity assay of renin inhibitors (fluorescence, QXL520/HiLyteFluo488 peptide substrate). Conditions: recombinant human renin 3 nM, 1 μM substrate, pre-incubated 10 minutes at 37° C., incubation one hour, pH 7.4, 5% DMSO; read-out: IC50 of Exemplified Compounds Against Renin. It counts as biochemical.

The structures appear in SMILES notation.

For orientation: IC50 means the concentration that gives 50% inhibition.

As for `COc1cccc(-n2c(-c3ccccc3)c(C(=O)N3CCNC[C@H]3Cc3ccccc3)[nH]c2=O)c1OC` [Example 112, (R)-4-(2-Benzylpiperazine-1-carbonyl)-1-(2,3-dimethoxyphenyl)-5-phenyl-1H-imidazol-2(3H)-one], the IC50 was below 100 nM.
In the case of `COc1ccccc1-n1c(-c2ccccc2)c(C(=O)N2CCNC[C@H]2Cc2ccccc2)[nH]c1=O` [Example 113, (R)-4-(2-Benzylpiperazine-1-carbonyl)-1-(2-methoxyphenyl)-5-phenyl-1H-imidazol-2(3H)-one], the IC50 is below 100 nM.
The value for `CS(=O)(=O)c1cccc(-n2c(-c3ccccc3)c(C(=O)N3CCNC[C@H]3Cc3ccccc3)[nH]c2=O)c1` [Example 114, (R)-4-(2-Benzylpiperazine-1-carbonyl)-1-(3-(methylsulfonyl)phenyl)-5-phenyl-1H-imidazol-2(3H)-one] was below 100 nM; that for `CC(=O)N1CCCC(n2c(-c3ccccc3)c(C(=O)N3CCNC[C@H]3Cc3ccccc3)[nH]c2=O)C1` (stereo partly drawn) [Example 115, 1-(1-Acetylpiperidin-3-yl)-4-((R)-2-benzylpiperazine-1-carbonyl)-5-phenyl-1H-imidazol-2(3H)-one] was 500 to 1000 nM.
As to `Cc1ccccc1-n1c(-c2ccccc2)c(C(=O)N2CCNC[C@H]2Cc2ccccc2)[nH]c1=O` [Example 116, (R)-4-(2-Benzylpiperazine-1-carbonyl)-5-phenyl-1-o-tolyl-1H-imidazol-2(3H)-one], the IC50 is below 100 nM.
`O=C(c1[nH]c(=O)n(-c2ccccc2[N+](=O)[O-])c1-c1ccccc1)N1CCNC[C@H]1Cc1ccccc1` [Example 117, (R)-4-(2-Benzylpiperazine-1-carbonyl)-1-(2-nitrophenyl)-5-phenyl-1H-imidazol-2(3H)-one]: the IC50 was below 100 nM.
The value for `CS(=O)(=O)Nc1ccccc1-n1c(-c2ccccc2)c(C(=O)N2CCNC[C@H]2Cc2ccccc2)[nH]c1=O` [Example 118, (R)—N-(2-(4-(2-Benzylpiperazine-1-carbonyl)-2-oxo-5-phenyl-2,3-dihydro-1H-imidazol-1-yl)phenyl)methanesulfonamide] was below 100 nM.
For `CCCS(=O)(=O)Nc1ccccc1-n1c(-c2ccccc2)c(C(=O)N2CCNC[C@H]2Cc2ccccc2)[nH]c1=O` [Example 119, (R)—N-(2-(4-(2-Benzylpiperazine-1-carbonyl)-2-oxo-5-phenyl-2,3-dihydro-1H-imidazol-1-yl)phenyl)propane-1-sulfonamide], the half-maximal inhibitory concentration (IC50) was below 100 nM.
Turning to `O=C(Nc1ccccc1-n1c(-c2ccccc2)c(C(=O)N2CCNC[C@H]2Cc2ccccc2)[nH]c1=O)C1CC1` [Example 120, (R)—N-(2-(4-(2-Benzylpiperazine-1-carbonyl)-2-oxo-5-phenyl-2,3-dihydro-1H-imidazol-1-yl)phenyl)cyclopropanecarboxamide], the IC50 lay in the range of 100 to 500 nM.
For the compound `CCCC(=O)Nc1ccccc1-n1c(-c2ccccc2)c(C(=O)N2CCNC[C@H]2Cc2ccccc2)[nH]c1=O` [Example 121, (R)—N-(2-(4-(2-Benzylpiperazine-1-carbonyl)-2-oxo-5-phenyl-2,3-dihydro-1H-imidazol-1-yl)phenyl)butyramide], the IC50 was 100 to 500 nM.
Take `CC(=O)Nc1ccccc1-n1c(-c2ccccc2)c(C(=O)N2CCNC[C@H]2Cc2ccccc2)[nH]c1=O` [Example 122, (R)—N-(2-(4-(2-Benzylpiperazine-1-carbonyl)-2-oxo-5-phenyl-2,3-dihydro-1H-imidazol-1-yl)phenyl)acetamide]: the 50% inhibitory concentration (IC50) is below 100 nM.
For `O=C(c1[nH]c(=O)n(-c2ccccc2NS(=O)(=O)C2CC2)c1-c1ccccc1)N1CCNC[C@H]1Cc1ccccc1` [Example 123, (R)—N-(2-(4-(2-Benzylpiperazine-1-carbonyl)-2-oxo-5-phenyl-2,3-dihydro-1H-imidazol-1-yl)phenyl)cyclopropanesulfonamide], the half-inhibitory concentration (IC50) was 100 to 500 nM.
On to `O=C(Nc1ccccc1-n1c(-c2ccccc2)c(C(=O)N2CCNC[C@H]2Cc2ccccc2)[nH]c1=O)c1ccccc1` [Example 124, (R)—N-(2-(4-(2-Benzylpiperazine-1-carbonyl)-2-oxo-5-phenyl-2,3-dihydro-1H-imidazol-1-yl)phenyl)benzamide], for which the IC50 was below 100 nM.
For the compound `O=C(c1[nH]c(=O)n(-c2ccccc2NS(=O)(=O)c2ccccc2)c1-c1ccccc1)N1CCNC[C@H]1Cc1ccccc1` [Example 125, (R)—N-(2-(4-(2-benzylpiperazine-1-carbonyl)-2-oxo-5-phenyl-2,3-dihydro-1H-imidazol-1-yl)phenyl)Benzenesulfonamide], the half-inhibitory concentration (IC50) was below 100 nM.
The value for `O=C(c1[nH]c(=O)n([C@H]2CCCC[C@@H]2O)c1-c1ccccc1)N1CCNC[C@H]1Cc1ccccc1` [Example 126, 4-((R)-2-Benzylpiperazine-1-carbonyl)-1-((1S,2S)-2-hydroxycyclohexyl)-5-phenyl-1H-imidazol-2(3H)-one] was below 100 nM; that for `CCS(=O)(=O)Nc1ccccc1-n1c(-c2ccccc2)c(C(=O)N2CCNC[C@H]2Cc2ccccc2)[nH]c1=O` [Example 127, (R)—N-(2-(4-(2-Benzylpiperazine-1-carbonyl)-2-oxo-5-phenyl-2,3-dihydro-1H-imidazol-1-yl)phenyl)ethanesulfonamide] was 100 to 500 nM.
Consider `CCCCS(=O)(=O)Nc1ccccc1-n1c(-c2ccccc2)c(C(=O)N2CCNC[C@H]2Cc2ccccc2)[nH]c1=O` [Example 128, (R)—N-(2-(4-(2-Benzylpiperazine-1-carbonyl)-2-oxo-5-phenyl-2,3-dihydro-1H-imidazol-1-yl)phenyl)butane-1-sulfonamide], for which the IC50 is below 100 nM.
Regarding `C=CCS(=O)(=O)Nc1ccccc1-n1c(-c2ccccc2)c(C(=O)N2CCNC[C@H]2Cc2ccccc2)[nH]c1=O` [Example 129, (R)—N-(2-(4-(2-Benzylpiperazine-1-carbonyl)-2-oxo-5-phenyl-2,3-dihydro-1H-imidazol-1-yl)phenyl)prop-2-ene-1-sulfonamide], the IC50 was below 100 nM.
For `O=C(c1[nH]c(=O)n(CC2(O)CCCCC2)c1-c1ccccc1)N1CCNC[C@H]1Cc1ccccc1` [Example 130, (R)-4-(2-Benzylpiperazine-1-carbonyl)-1-((1-hydroxycyclohexyl)methyl)-5-phenyl-1H-imidazol-2(3H)-one], the IC50 was below 100 nM.
With `CCCCN1CCCc2ccc(-n3c(-c4ccccc4)c(C(=O)N4CCNC[C@H]4Cc4ccccc4)[nH]c3=O)cc21` [Example 131] the figure was below 100 nM; with `O=C(c1[nH]c(=O)n(-c2ccc3c(c2)NCCC3)c1-c1ccccc1)N1CCNC[C@H]1Cc1ccccc1` [Example 132, (R)-4-(2-Benzylpiperazine-1-carbonyl)-5-phenyl-1-(1,2,3,4-tetrahydroquinolin-7-yl)-1H-imidazol-2(3H)-one], below 100 nM.
Take `CCCCN1CCCc2ccc(-n3c(C4CC4)c(C(=O)N4CCNC[C@H]4Cc4ccccc4)[nH]c3=O)cc21` [Example 133, (R)-4-(2-Benzylpiperazine-1-carbonyl)-1-(1-butyl-1,2,3,4-tetrahydroquinolin-7-yl)-5-cyclopropyl-1H-imidazol-2(3H)-one]: the IC50 is above 1000 nM.
The value for `O=C(c1[nH]c(=O)n(-c2ccc3c(c2)NCCC3)c1C1CC1)N1CCNC[C@H]1Cc1ccccc1` [Example 134, (R)-4-(2-Benzylpiperazine-1-carbonyl)-5-cyclopropyl-1-(1,2,3,4-tetrahydroquinolin-7-yl)-1H-imidazol-2(3H)-one] was 500 to 1000 nM.
As for `CN1CCOc2ccc(-n3c(-c4ccccc4)c(C(=O)N4CCNC[C@H]4Cc4ccccc4)[nH]c3=O)cc21` [Example 135, (R)-4-(2-Benzylpiperazine-1-carbonyl)-1-(4-methyl-3,4-dihydro-2H-benzo[b][1,4]oxazin-6-yl)-5-phenyl-1H-imidazol-2(3H)-one], the IC50 is below 100 nM.
Take `O=C(c1[nH]c(=O)n(-c2ccc3c(c2)NCC3)c1-c1ccccc1)N1CCNC[C@H]1Cc1ccccc1` [Example 136, (R)-4-(2-Benzylpiperazine-1-carbonyl)-1-(indolin-6-yl)-5-phenyl-1H-imidazol-2(3H)-one]: the IC50 is below 100 nM.
Take `COCCN1CCOc2ccc(-n3c(-c4ccccc4)c(C(=O)N4CCNC[C@H]4Cc4ccccc4)[nH]c3=O)cc21` [Example 137, (R)-4-(2-Benzylpiperazine-1-carbonyl)-1-(4-(2-methoxyethyl)-3,4-dihydro-2H-benzo[b][1,4]oxazin-6-yl)-5-phenyl-1H-imidazol-2(3H)-one]: the IC50 is below 100 nM.
Take `COC1CCc2ccc(-n3c(-c4ccccc4)c(C(=O)N4CCNC[C@H]4Cc4ccccc4)[nH]c3=O)cc21` (stereo partly drawn) [Example 138, 4-((R)-2-Benzylpiperazine-1-carbonyl)-1-(3-methoxy-2,3-dihydro-1H-inden-5-yl)-5-phenyl-1H-imidazol-2(3H)-one]: the IC50 fell in the range of 100 to 500 nM.
`CCOC(=O)N1CCc2ccc(-n3c(-c4ccccc4)c(C(=O)N4CCNC[C@H]4Cc4ccccc4)[nH]c3=O)cc21` [Example 139, (R)-Ethyl 6-(4-(2-benzylpiperazine-1-carbonyl)-2-oxo-5-phenyl-2,3-dihydro-1H-imidazol-1-yl)indoline-1-carboxylate]: the 50% inhibitory concentration (IC50) is below 100 nM.
Regarding `O=C(c1[nH]c(=O)n(-c2ccc3c(c2)NCCC3)c1-c1ccccc1)N1CCNC[C@H]1CCOc1ccccc1` [Example 140, (R)-4-(2-(2-Phenoxyethyl)piperazine-1-carbonyl)-5-phenyl-1-(1,2,3,4-tetrahydroquinolin-7-yl)-1H-imidazol-2(3H)-one], the half-maximal inhibitory concentration (IC50) is below 100 nM.
As to `C=CCn1c(C(=O)N2CCNCC2)c(-c2ccccc2)n(-c2ccccc2C)c1=O` [Example 141, 1-Allyl-4-phenyl-5-(piperazine-1-carbonyl)-3-o-tolyl-1H-imidazol-2(3H)-one], the concentration for half-maximal inhibition (IC50) is above 1000 nM.
